Experimental data as given in ChEMBL document CHEMBL4725427, “Synthesis and SAR Studies of 1H-Pyrrolo[2,3-b]pyridine-2-carboxamides as Phosphodiesterase 4B (PDE4B) Inhibitors” (ACS Med Chem Lett, 2020).
Values belong to the molecule of their own block, whether it stands above or below them.

Legend:
[1] = molecular target: T1, 3',5'-cyclic-AMP phosphodiesterase 4B (Homo sapiens, UniProt Q07343); experiment: Inhibition of recombinant human C-terminal His-tagged N-terminal GST-tagged PDE4B2 expressed in baculovirus infected Sf9 cells by radioligand binding assay; format: cell-based
[2] = molecular target: T1, 3',5'-cyclic-AMP phosphodiesterase 4B; experiment: Inhibition of recombinant human C-terminal His-tagged N-terminal GST-tagged PDE4B2 expressed in baculovirus infected Sf9 cells at 10 uM by radioligand binding assay relative to control
[3] = Protein binding in human plasma assessed as unbound fraction; format: ADME, cell-free
[4] = Metabolic stability in mouse liver microsomes assessed as intrinsic clearance; format: ADME, Microsome; conditions: read-out: CLH
[5] = Metabolic stability in human liver microsomes assessed as intrinsic clearance; format: ADME, Microsome; conditions: read-out: CLH
[6] = Protein binding in mouse plasma assessed as unbound fraction; format: ADME, cell-free
[7] = Effect on TNFalpha production in C57BL/6 mouse bone marrow derived Macrophage at 1 to 10 uM incubated for 30 mins by ELISA; conditions: 0.5 h

T1 sequence (Q07343 whole entry): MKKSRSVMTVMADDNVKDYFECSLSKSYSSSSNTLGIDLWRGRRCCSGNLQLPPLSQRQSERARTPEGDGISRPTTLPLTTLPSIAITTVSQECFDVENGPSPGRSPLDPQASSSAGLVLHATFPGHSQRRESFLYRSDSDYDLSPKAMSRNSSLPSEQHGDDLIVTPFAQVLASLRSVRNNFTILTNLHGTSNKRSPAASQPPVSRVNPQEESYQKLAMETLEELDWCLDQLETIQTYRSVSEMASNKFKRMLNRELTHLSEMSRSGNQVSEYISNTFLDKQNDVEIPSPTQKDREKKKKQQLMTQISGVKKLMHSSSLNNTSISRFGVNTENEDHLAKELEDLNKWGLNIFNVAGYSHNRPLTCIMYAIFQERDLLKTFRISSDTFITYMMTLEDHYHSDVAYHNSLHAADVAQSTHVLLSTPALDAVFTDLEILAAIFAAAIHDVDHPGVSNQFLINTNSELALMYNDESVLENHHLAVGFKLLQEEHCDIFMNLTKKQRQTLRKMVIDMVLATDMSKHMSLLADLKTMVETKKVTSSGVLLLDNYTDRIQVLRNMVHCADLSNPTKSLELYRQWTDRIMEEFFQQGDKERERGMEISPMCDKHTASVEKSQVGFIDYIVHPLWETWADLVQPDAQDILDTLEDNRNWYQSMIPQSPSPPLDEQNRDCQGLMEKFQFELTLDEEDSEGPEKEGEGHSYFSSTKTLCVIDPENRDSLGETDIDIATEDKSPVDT

IC50 [1]: 2.4 µM
Structure (SMILES): O=C(c1nc2ccccc2n1-c1ccc(Cl)c(Cl)c1)N1CC(F)C1

inhibition [2]: 67%
Structure (SMILES): COc1ccc(-n2c(C(=O)N3CC(F)C3)cc3cccnc32)cc1

inhibition [2]: 58%
Structure (SMILES): N#Cc1c(F)cc(-n2c(C(=O)NC3CC(F)C3)cc3cccnc32)cc1F (stereo not drawn)

inhibition [2]: 23%
Structure (SMILES): O=C(NC1CC(F)(F)C1)c1cc2cccnc2n1-c1ccc(Cl)c(Cl)c1

inhibition [2]: 58%
Structure (SMILES): O=C(c1cc2ccccc2n1-c1ccc(Cl)c(Cl)c1)N1CC(F)C1

inhibition [2]: 48%
Structure (SMILES): O=C(c1cc2cccnc2n1-c1ccc(Cl)c(F)c1)N1CC(F)(F)C1

fraction unbound [3]: 0.474
CLint scaled [4]: < 49.5 mL/min/kg
CLint scaled [5]: < 23.1 mL/min/kg
fraction unbound [6]: 0.393
Structure (SMILES): O=C(c1cc2cccnc2n1-c1ccnc(F)c1)N1CC(F)C1

inhibition [2]: 41%
Structure (SMILES): N#Cc1c(F)cc(-n2c(C(=O)N3CC(F)(F)C3)cc3cccnc32)cc1F

inhibition [2]: 77%
Structure (SMILES): COc1ccc(-n2c(C(=O)N3CC(F)C3)cc3cccnc32)cc1F

IC50 [1]: 4.2 µM
Structure (SMILES): O=C(NC1CC1)c1nn2ccccc2c1-c1ccc(Cl)c(Cl)c1

inhibition [2]: 47%
Structure (SMILES): O=C(c1cc2cccnc2n1-c1ccc(Cl)cc1)N1CC(F)(F)C1

fraction unbound [3]: 0.026
CLint scaled [4]: 157 mL/min/kg
CLint scaled [5]: 179 mL/min/kg
fraction unbound [6]: 0.006
Structure (SMILES): O=C(NC1CC1)c1cc2cccnc2n1-c1ccc(Cl)c(Cl)c1

Structure (SMILES): N#Cc1c(F)cc(-n2c(C(=O)NC3CC3)cc3cccnc32)cc1F
fraction unbound [3]: 0.235
CLint scaled [4]: < 49.5 mL/min/kg
CLint scaled [5]: 31.5 mL/min/kg
fraction unbound [6]: 0.096

fraction unbound [3]: 0.302
CLint scaled [4]: < 49.5 mL/min/kg
CLint scaled [5]: < 23.1 mL/min/kg
fraction unbound [6]: 0.133
Structure (SMILES): COc1c(F)cc(-n2c(C(=O)N3CC(F)C3)cc3cccnc32)cc1F
Activity [7]: Non-Toxic

fraction unbound [3]: 0.113
CLint scaled [4]: 104 mL/min/kg
inhibition [2]: 48%
CLint scaled [5]: 33.3 mL/min/kg
fraction unbound [6]: 0.051
Structure (SMILES): O=C(c1cc2cccnc2n1-c1cc(F)c(Cl)c(F)c1)N1CC(F)(F)C1
Activity [7]: Non-Toxic

inhibition [2]: 47%
Structure (SMILES): N#Cc1c(F)cc(-n2c(C(=O)NC3CC(F)(F)C3)cc3cccnc32)cc1F

Structure (SMILES): O=C(c1cc2cccnc2n1Cc1ccc(Cl)c(Cl)c1)N1CC(F)C1
inhibition [2]: 72%

inhibition [2]: 56%
Structure (SMILES): Cc1ccc(-c2c(C(=O)NC3CC3)n(C)c3cccnc23)cc1Cl

Structure (SMILES): COc1ccc(C2CNC(=O)C2)cc1OC1CCCC1 (stereo not drawn) [ROLIPRAM]
Activity [7]: Non-Toxic

inhibition [2]: 37%
Structure (SMILES): O=C(c1cc2cccnc2n1-c1ccnc(F)c1)N1CC(F)(F)C1

inhibition [2]: 70%
Structure (SMILES): O=C(NCc1ccco1)c1cc2cccnc2n1-c1ccc(Cl)c(Cl)c1

inhibition [2]: 46%
Structure (SMILES): Cc1ccc(-c2c(C(=O)NC3CC3)sc3nccnc23)cc1Cl

IC50 [1]: 9.4 µM
Structure (SMILES): Cc1ccc(-n2c(C(=O)NC3CC(F)C3)cc3cccnc32)cc1Cl (stereo not drawn)
Activity [7]: Non-Toxic

fraction unbound [3]: 0.085
CLint scaled [4]: 150 mL/min/kg
CLint scaled [5]: 29.6 mL/min/kg
fraction unbound [6]: 0.056
Structure (SMILES): Cc1ccc(-n2c(C(=O)NC3CC3)nc3cccnc32)cc1Cl

inhibition [2]: 35%
Structure (SMILES): COc1c(F)cc(-n2c(C(=O)N3CC(F)(F)C3)cc3cccnc32)cc1F

Structure (SMILES): O=C(c1cc2cccnc2n1-c1ccc(Cl)c(F)c1)N1CC(F)C1
Activity [7]: Non-Toxic

inhibition [2]: 47%
Structure (SMILES): Cc1ccc(-n2c(C(=O)N3CC(F)(F)C3)cc3cccnc32)cc1Cl

fraction unbound [3]: 0.011
CLint scaled [4]: 551 mL/min/kg
CLint scaled [5]: 172 mL/min/kg
fraction unbound [6]: 0.006
Structure (SMILES): Cc1ccc(-n2c(C(=O)NC3CC3)cc3cccnc32)cc1Cl

fraction unbound [3]: 0.049
CLint scaled [4]: 134 mL/min/kg
CLint scaled [5]: < 23.1 mL/min/kg
fraction unbound [6]: 0.066
Structure (SMILES): COc1ncc(-n2c(C(=O)N3CC(F)C3)cc3cccnc32)cc1Cl
Activity [7]: Non-Toxic
